Results as given in PubChem BioAssay (NCI).
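How tested: cells in 96-well plates exposed to compound for 48 hours at five concentrations. TGI marks complete inhibition of growth.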

What was measured:
Experiment in all cases: NCI tumour cell line growth inhibition, 48 h
[1] = test system: 786-0 renal
[2] = test system: A498 renal
[3] = test system: A549 NSCLC
[4] = test system: ACHN renal
[5] = test system: BT-549 breast
[6] = test system: CAKI-1 renal
[7] = test system: CCRF-CEM leukemia
[8] = test system: COLO 205 colon
[9] = test system: DU-145 prostate
[10] = test system: EKVX NSCLC
[11] = test system: HCC-2998 colon
[12] = test system: HCT-116 colon
[13] = test system: HCT-15 colon
[14] = test system: HL-60(TB) leukemia
[15] = test system: HOP-62 NSCLC
[16] = test system: HOP-92 NSCLC
[17] = test system: IGROV1 ovarian
[18] = test system: K-562 leukemia
[19] = test system: KM12 colon
[20] = test system: LOX IMVI melanoma
[21] = test system: M14 melanoma
[22] = test system: MALME-3M melanoma
[23] = test system: MCF7 breast
[24] = test system: MDA-MB-231 breast
[25] = test system: MDA-MB-435
[26] = test system: MDA-N
[27] = test system: MOLT-4 leukemia
[28] = test system: NCI-H522 lung
[29] = test system: NCI/ADR-RES ovarian
[30] = test system: OVCAR-3 ovarian
[31] = test system: OVCAR-4 ovarian
[32] = test system: OVCAR-5 ovarian
[33] = test system: OVCAR-8 ovarian
[34] = test system: PC-3 prostate
[35] = test system: RPMI-8226 leukemia
[36] = test system: SF-268 CNS
[37] = test system: SF-295 CNS
[38] = test system: SF-539 CNS
[39] = test system: SK-MEL-28 melanoma
[40] = test system: SK-MEL-5 melanoma
[41] = test system: SK-OV-3 ovarian
[42] = test system: SN12C renal
[43] = test system: SNB-19 CNS
[44] = test system: SW-620 colon
[45] = test system: T-47D breast
[46] = test system: TK-10 renal
[47] = test system: U251 CNS
[48] = test system: UACC-257 melanoma
[49] = test system: UACC-62 melanoma
[50] = test system: UO-31 renal
[51] = test system: HS 578T breast
[52] = test system: NCI-H23 lung
[53] = test system: NCI-H460 lung
[54] = test system: SK-MEL-2 melanoma
[55] = test system: SR leukemia
[56] = test system: NCI-H226 lung
[57] = test system: RXF 393 renal
[58] = test system: SNB-75 CNS

Question: For `COc1cc2c(c(OC)c1O)-c1ccc(OC)c(=O)cc1[C@@H](NC(=O)C(F)(F)F)CC2`, which TGI [1] is on record?
Answer: > 100 µM

Question: What about the TGI [2] of the same compound?
Answer: 2.21 µM

Question: What about the TGI [3] of the same compound?
Answer: > 100 µM

Question: And the TGI [4]?
Answer: > 100 µM

Question: And the TGI [5]?
Answer: > 100 µM

Question: What about the TGI [6] of the same compound?
Answer: > 100 µM

Question: And the TGI [7]?
Answer: > 100 µM

Question: And the TGI [8]?
Answer: 0.0933 µM

Question: And the TGI [9]?
Answer: > 100 µM

Question: And the TGI [10]?
Answer: > 100 µM

Question: What about the TGI [11] of the same compound?
Answer: 14.1 µM

Question: And the TGI [12]?
Answer: > 40.8 µM

Question: And the TGI [13]?
Answer: > 100 µM

Question: What about the TGI [14] of the same compound?
Answer: 2.55 µM

Question: What about the TGI [15] of the same compound?
Answer: 2.4 µM

Question: What about the TGI [16] of the same compound?
Answer: > 100 µM

Question: And the TGI [17]?
Answer: 0.695 µM

Question: And the TGI [18]?
Answer: > 100 µM

Question: What about the TGI [19] of the same compound?
Answer: > 100 µM

Question: And the TGI [20]?
Answer: > 100 µM

Question: And the TGI [21]?
Answer: > 100 µM

Question: What about the TGI [22] of the same compound?
Answer: > 100 µM

Question: What about the TGI [23] of the same compound?
Answer: > 100 µM

Question: What about the TGI [24] of the same compound?
Answer: 0.628 µM

Question: And the TGI [25]?
Answer: 0.055 µM

Question: What about the TGI [26] of the same compound?
Answer: 0.0628 µM

Question: And the TGI [27]?
Answer: > 100 µM

Question: And the TGI [28]?
Answer: 0.0665 µM

Question: And the TGI [29]?
Answer: > 100 µM

Question: What about the TGI [30] of the same compound?
Answer: 0.151 µM

Question: And the TGI [31]?
Answer: > 100 µM

Question: And the TGI [32]?
Answer: > 100 µM

Question: And the TGI [33]?
Answer: > 100 µM

Question: What about the TGI [34] of the same compound?
Answer: 0.588 µM

Question: And the TGI [35]?
Answer: 0.0699 µM

Question: What about the TGI [36] of the same compound?
Answer: > 100 µM

Question: What about the TGI [37] of the same compound?
Answer: > 100 µM

Question: And the TGI [38]?
Answer: 0.087 µM

Question: And the TGI [39]?
Answer: > 100 µM

Question: What about the TGI [40] of the same compound?
Answer: 0.0668 µM

Question: What about the TGI [41] of the same compound?
Answer: > 100 µM

Question: What about the TGI [42] of the same compound?
Answer: > 100 µM

Question: What about the TGI [43] of the same compound?
Answer: > 100 µM

Question: What about the TGI [44] of the same compound?
Answer: > 100 µM

Question: What about the TGI [45] of the same compound?
Answer: > 100 µM

Question: And the TGI [46]?
Answer: > 100 µM

Question: And the TGI [47]?
Answer: > 100 µM

Question: And the TGI [48]?
Answer: > 100 µM

Question: What about the TGI [49] of the same compound?
Answer: > 100 µM

Question: And the TGI [50]?
Answer: > 100 µM

Question: Which TGI [1] does the source give for `COC(=O)NC1(NC(=O)OC)NC(=O)c2cc(OC)c(OC)cc2N1` here?
Answer: > 100 µM

Question: What about the TGI [3] of the same compound?
Answer: > 100 µM

Question: What about the TGI [4] of the same compound?
Answer: > 100 µM

Question: What about the TGI [6] of the same compound?
Answer: 61.9 µM

Question: And the TGI [7]?
Answer: 55.3 µM

Question: What about the TGI [8] of the same compound?
Answer: > 100 µM

Question: What about the TGI [9] of the same compound?
Answer: > 100 µM

Question: What about the TGI [10] of the same compound?
Answer: > 100 µM

Question: What about the TGI [12] of the same compound?
Answer: > 100 µM

Question: What about the TGI [13] of the same compound?
Answer: > 100 µM

Question: What about the TGI [15] of the same compound?
Answer: > 100 µM

Question: What about the TGI [51] of the same compound?
Answer: 85.1 µM

Question: What about the TGI [17] of the same compound?
Answer: > 100 µM

Question: And the TGI [18]?
Answer: > 100 µM

Question: And the TGI [19]?
Answer: > 100 µM

Question: What about the TGI [20] of the same compound?
Answer: > 100 µM

Question: And the TGI [21]?
Answer: > 100 µM

Question: And the TGI [23]?
Answer: > 100 µM

Question: What about the TGI [25] of the same compound?
Answer: 13.7 µM

Question: What about the TGI [26] of the same compound?
Answer: 16 µM

Question: And the TGI [52]?
Answer: > 100 µM

Question: What about the TGI [53] of the same compound?
Answer: > 100 µM

Question: And the TGI [28]?
Answer: 80 µM

Question: What about the TGI [29] of the same compound?
Answer: > 100 µM

Question: What about the TGI [30] of the same compound?
Answer: 67.6 µM

Question: And the TGI [32]?
Answer: > 100 µM

Question: What about the TGI [33] of the same compound?
Answer: > 100 µM

Question: What about the TGI [34] of the same compound?
Answer: > 100 µM

Question: And the TGI [35]?
Answer: > 100 µM

Question: And the TGI [36]?
Answer: > 100 µM

Question: What about the TGI [37] of the same compound?
Answer: > 100 µM

Question: And the TGI [38]?
Answer: 60.8 µM

Question: What about the TGI [54] of the same compound?
Answer: 67 µM

Question: What about the TGI [39] of the same compound?
Answer: > 100 µM

Question: What about the TGI [40] of the same compound?
Answer: > 100 µM

Question: What about the TGI [42] of the same compound?
Answer: > 100 µM

Question: What about the TGI [43] of the same compound?
Answer: > 100 µM

Question: And the TGI [55]?
Answer: > 100 µM

Question: And the TGI [44]?
Answer: > 100 µM

Question: And the TGI [45]?
Answer: > 100 µM

Question: What about the TGI [46] of the same compound?
Answer: > 100 µM

Question: What about the TGI [48] of the same compound?
Answer: > 100 µM

Question: What about the TGI [49] of the same compound?
Answer: > 100 µM

Question: What about the TGI [50] of the same compound?
Answer: > 100 µM

Question: With `C[C@H]1C(=O)O[C@@H]1[C@H]1COC(C)(C)O1` as the compound, how does the TGI [2] read?
Answer: > 100 µM

Question: What about the TGI [3] of the same compound?
Answer: > 100 µM

Question: What about the TGI [4] of the same compound?
Answer: > 100 µM

Question: What about the TGI [5] of the same compound?
Answer: > 100 µM

Question: And the TGI [6]?
Answer: > 100 µM

Question: What about the TGI [7] of the same compound?
Answer: > 100 µM

Question: And the TGI [10]?
Answer: > 100 µM

Question: And the TGI [11]?
Answer: > 100 µM

Question: What about the TGI [13] of the same compound?
Answer: > 100 µM

Question: What about the TGI [14] of the same compound?
Answer: > 100 µM

Question: What about the TGI [15] of the same compound?
Answer: > 100 µM

Question: And the TGI [16]?
Answer: > 100 µM

Question: And the TGI [19]?
Answer: > 100 µM

Question: And the TGI [21]?
Answer: > 100 µM

Question: And the TGI [23]?
Answer: > 100 µM

Question: What about the TGI [24] of the same compound?
Answer: > 100 µM

Question: What about the TGI [25] of the same compound?
Answer: > 100 µM

Question: What about the TGI [26] of the same compound?
Answer: > 100 µM

Question: What about the TGI [27] of the same compound?
Answer: > 100 µM

Question: What about the TGI [56] of the same compound?
Answer: > 100 µM

Question: What about the TGI [52] of the same compound?
Answer: > 100 µM

Question: And the TGI [53]?
Answer: > 100 µM

Question: And the TGI [29]?
Answer: > 100 µM

Question: And the TGI [30]?
Answer: > 100 µM

Question: What about the TGI [31] of the same compound?
Answer: > 100 µM

Question: What about the TGI [32] of the same compound?
Answer: > 100 µM

Question: What about the TGI [33] of the same compound?
Answer: > 100 µM

Question: And the TGI [34]?
Answer: > 100 µM

Question: What about the TGI [35] of the same compound?
Answer: > 100 µM

Question: And the TGI [57]?
Answer: > 100 µM

Question: And the TGI [36]?
Answer: > 100 µM

Question: And the TGI [37]?
Answer: > 100 µM

Question: And the TGI [38]?
Answer: > 100 µM

Question: And the TGI [54]?
Answer: > 100 µM

Question: What about the TGI [39] of the same compound?
Answer: > 100 µM

Question: And the TGI [41]?
Answer: > 100 µM

Question: And the TGI [42]?
Answer: > 100 µM

Question: And the TGI [43]?
Answer: > 100 µM

Question: And the TGI [58]?
Answer: > 100 µM

Question: And the TGI [55]?
Answer: > 100 µM

Question: And the TGI [44]?
Answer: > 100 µM

Question: What about the TGI [46] of the same compound?
Answer: > 100 µM

Question: And the TGI [47]?
Answer: > 100 µM

Question: What about the TGI [48] of the same compound?
Answer: > 100 µM

Question: And the TGI [49]?
Answer: > 100 µM

Question: And the TGI [50]?
Answer: > 100 µM
